Assay results: PubChem BioAssay AID1996
In brackets after ≈: the same amount, converted by molar mass.

settings: buffer; pH 7.4; 200.0 µM

SMILES | solubility kinetic [µg/mL]
CCC(=NC(C)c1ccccc1)c1c(O)[nH]c(=O)[nH]c1=O (stereo not given) | > 43.1
C=CCNC(=S)NC(=O)c1csc([N+](=O)[O-])c1 | 38.5 (≈ 142 µM)
C/C(=N\OCc1ccccc1C#N)c1cc2ccccc2o1 | 1.1 (≈ 3.79 µM)
O=C(NC1CCCC1)C1CC(=O)N(c2ccc(F)cc2)C1 (stereo not given) | 38.4 (≈ 132 µM)
N#Cc1ccc(OCC(=O)OCC(=O)NC2CC2)cc1 | > 41.1
COc1cccc(C2(C)NC(=O)N(CC(=O)Nc3ccc(N4CCOCC4)cc3)C2=O)c1 (stereo not given) | 57.7 (≈ 132 µM)
CC1=C([N+](=O)[O-])C(c2ccccc2)NC(=O)N1 (stereo not given) | > 35
COCCCn1c(=NC(C)=O)c(C#N)cc2c(=O)n3cccc(C)c3nc21 | 52.3 (≈ 143 µM)
O=C1COc2ccc(C(=O)CCl)cc2N1 | > 33.8
CC1CCCCN1C(=O)c1ccc(C(=O)c2ccccc2)cc1 (stereo not given) | > 46.1
Cc1cc(OCC(=O)N2CCOCC2)ccc1[N+](=O)[O-] | > 42
N#CC(C#N)=CNc1cccnc1 | > 25.5
CCn1c(=O)c2cc(C(=O)NC(C)C)sc2c2ccccc21 | 1 (≈ 3.18 µM)
COc1cccc(NC(=O)c2ccc3nsnc3c2)c1 | 24.5 (≈ 85.9 µM)
CSc1ncc(CN2CCc3c([nH]c4ccccc34)C2C(C)(C)C)cn1 (stereo not given) | 19.5 (≈ 53.2 µM)
CC(C)N1C(=O)CCC1C(=O)NCc1cccs1 (stereo not given) | > 40
O=[N+]([O-])c1cc([N+](=O)[O-])c2cc3ccccc3nc2c1 | 0.2 (≈ 0.743 µM)
c1ccc2[nH]c(SN3CCOCC3)nc2c1 | 10.8 (≈ 45.9 µM)
O=C(Nc1cccc2cccnc12)c1cccc(Cl)c1 | 1.5 (≈ 5.31 µM)
CN(C(=O)c1ccc(COc2ccccc2Cl)o1)c1ccccc1 | 8.8 (≈ 25.7 µM)
O=C1OCc2ccc(NC(=O)c3c(F)cccc3Cl)cc21 | 2 (≈ 6.54 µM)
CCOC(=O)c1cccc(NC(=S)NC(=O)c2cccnc2)c1 | 8.1 (≈ 24.6 µM)
Cc1nc(N)c(C#N)c(-c2ccc3c(c2)OCO3)c1C | 0.5 (≈ 1.87 µM)
CCN(CC(=O)Nc1ccc(OC)cc1)C(=O)c1ccc2ccccc2c1 | 43.9 (≈ 121 µM)

SMILES | solubility kinetic [µg/mL]
Cn1cnc2c(=O)sc3ccccc3c21 | > 32.4
Cc1cc(C)c2oc(=O)cc(CN3CCC(C)CC3)c2c1 | 4.1 (≈ 14.4 µM)
COc1ccc(CN2CCc3c([nH]c4ccccc34)C2)c(OC)c1C | 35.2 (≈ 105 µM)
CCOC(=O)N1CCN(Cc2cc(Cl)c3cccnc3c2O)CC1 | > 52.5
COc1ccc(CCNC(=O)COC(=O)CCC(=O)c2ccc(F)cc2)cc1 | 15.9 (≈ 41 µM)
O=C(COC(=O)c1cc(=O)[nH]c2ccccc12)NCCc1ccccc1 | 21.1 (≈ 60.2 µM)
Cl.OC(CNCc1cccc(Br)c1)c1ccccc1 (stereo not given) | 48.1
Cc1ccc(OCc2nc3ccccc3n2C)cc1 | 5.7 (≈ 22.6 µM)
O=c1c2ccccc2ncn1Cc1ccccc1 | 31.5 (≈ 133 µM)
O=C(Nc1ccccc1C(=O)Nc1ccccc1)c1ccco1 | 0.9 (≈ 2.94 µM)
CC(NC(=O)c1cc2cc([N+](=O)[O-])ccc2oc1=O)C1CCCO1 (stereo not given) | 36.5 (≈ 110 µM)
CC(CC(=O)Nc1nccs1)c1ccccc1 (stereo not given) | 32.5 (≈ 132 µM)
COc1ccc(CNC(=S)NC(C)CCc2ccccc2)cc1 (stereo not given) | 14.8 (≈ 45.1 µM)
O=C(NC1CN2CCC1CC2)c1cccc(Cl)c1 (stereo not given) | > 39.7
O=C(CN1C(=O)NC(Cc2c[nH]c3ccccc23)C1=O)NC1CC1 (stereo not given) | > 49
CCN1CCc2nc(N)sc2C1 | 25.8 (≈ 141 µM)
Cc1cc(C)c(S(=O)(=O)Cc2ccccc2)c(OC(C)C)n1 | 26 (≈ 81.4 µM)
Cc1ccc(C(=O)CNc2ccccc2)cc1 | 4.1 (≈ 18.2 µM)
O=C(O)C1=NN(c2ccccc2)C(=O)C1 | > 30.6
CCN1CCN(CC(=O)Nc2cc(S(=O)(=O)N3CCCCC3)ccc2Cl)CC1.O=C(O)C(=O)O | > 77.9
O=S(=O)(NCC(O)c1ccccc1)c1ccc(-c2ccccn2)s1 (stereo not given) | > 54.1
CN(C)c1nc(N(C)C)nc(N(C#N)Cc2ccc(Cl)cc2)n1 | 0.3 (≈ 0.904 µM)
CCOc1ccc(N2C(=O)CC(Cc3cc(C)cc(C)c3)C2=O)cc1 (stereo not given) | 4 (≈ 11.9 µM)
C=CCNC(=O)c1cc2c(=O)n3ccccc3nc2s1 | 10.4 (≈ 36.4 µM)

SMILES | solubility kinetic [µg/mL]
CN/C=C(/Cl)P(=O)(OC(C)C)OC(C)C | > 38.4
CC(=O)Nc1cccc(C(=O)OC(C)C(=O)N2CCc3ccccc32)c1 (stereo not given) | 1.3 (≈ 3.69 µM)
Cn1c(SCC(=O)Nc2nccs2)nnc1C1CC1 | > 44.3
O=C(Nc1cc(Cl)cc(Cl)c1)c1cccnc1 | 17.6 (≈ 65.9 µM)
OCCCNC(=S)Nc1ccc(Br)cc1Cl | > 48.5
N#C/C(=C\c1cccs1)C(=O)c1ccccc1 | 26.3 (≈ 110 µM)
O=c1[nH]cccc1-c1nc2ccccc2n1Cc1ccccc1F | 3.9 (≈ 12.2 µM)
COc1ccc(S(=O)(=O)N2CCOCC2)cc1NC(=O)CC(C)c1ccccc1 (stereo not given) | 9.9 (≈ 23.7 µM)
Cc1cc(C(=O)NCCc2ccccc2)c2cc(F)ccc2n1 | 14.9 (≈ 48.3 µM)
Cc1ccccc1-c1nc(C#N)c(N2CCC(C)CC2)o1 | < 0.2
Cc1cccc(Cn2c(-c3ccc[nH]c3=O)nc3ccccc32)c1 | 36.7 (≈ 116 µM)
Cc1ccc(NC(=O)c2noc3c2CCC3)cc1C | 4.7 (≈ 18.3 µM)
COCCCC/C(=N\OCCN)c1ccc(C(F)(F)F)cc1.O=C(O)/C=C\C(=O)O | > 65.2
COC(=O)C(Cc1ccccc1)NC(=O)CC(C)CC(=O)Nc1ccc(C)cc1 (stereo not given) | 14.3 (≈ 36.1 µM)
N#C/C(=C\c1cc([N+](=O)[O-])ccc1Cl)C(N)=O | 33.5 (≈ 133 µM)
O=C(NCc1cccc(Cl)c1)c1ccc2c(c1)OCCO2 | 3.2 (≈ 10.5 µM)
O=C(NCC(=O)N1CCN(Cc2ccccc2)CC1)c1cc(Cl)cc([N+](=O)[O-])c1 | > 62.5
CC(C)COP(=O)(OCC(C)C)C(O)c1ccc(N(C)C)cc1 (stereo not given) | > 51.5
O=C(c1cccc(Br)c1)N1CCN(c2ccccn2)CC1 | > 51.9
O=C(O)/C=C/c1ccc(S(=O)(=O)Nc2ccc3[nH]c(=O)[nH]c3c2)cc1 | > 53.9
CCOC(=O)C1CCN(C(=S)NC(=O)c2cccs2)CC1 | > 49
Cc1ccc2[nH]c3c(Cl)ncnc3c2c1 | 13.3 (≈ 61.1 µM)
O=[N+]([O-])c1ccc(N2CCOCC2)cc1O | > 33.6
COc1cccc(CNC(=O)CCCC(=O)Nc2cccc([N+](=O)[O-])c2)c1 | > 55.7

SMILES | solubility kinetic [µg/mL]
Cc1noc2ncnc(N3CCCCC3)c12 | 27.8 (≈ 127 µM)
CC(OC(=O)c1ccc2ncsc2c1)C(=O)N1CCCC1 (stereo not given) | 39.4 (≈ 129 µM)
CN1CCc2cccc3c2[C@@H]1Cc1ccc(O)c(O)c1-3.Cl | 12.5
CC(C)c1nc(SCC(=O)c2ccc(F)cc2)c2ccccc2n1 | 1.7 (≈ 4.99 µM)
O=C(O)c1cc(=O)c2ccccc2[nH]1 | > 28.4
CN(C(=O)CSc1nc2scc(-c3ccccc3)c2c(=O)[nH]1)c1ccccc1 | 11.2 (≈ 27.5 µM)
CC(=O)N1CCN(S(=O)(=O)c2cccc(C(=O)OCC(=O)N(Cc3ccccc3)C(C)(C)C)c2)CC1 | 60.5 (≈ 117 µM)
CC1CCCC(NC(=O)Cn2cc([N+](=O)[O-])ccc2=O)C1C (stereo not given) | 44 (≈ 143 µM)
Cc1cccc(C)c1NC(=O)C1CCCCN1C.Cl (stereo not given) | > 42.4
Nc1ccc(Oc2ccc3c(c2)C(=O)NC3=O)cc1 | 35.5 (≈ 140 µM)
CCCNC(=O)c1ccc(COc2ccc(C)cc2)o1 | > 41
O=[N+]([O-])c1ccc(NC(=S)N2CCc3ccccc32)cc1 | 3.9 (≈ 13 µM)
COc1cccc(-c2cc(C(=O)NC3CCCC3)c3ccccc3n2)c1 | 1.3 (≈ 3.75 µM)
CC(C)c1nc(SCC(=O)Nc2nccs2)c2ccccc2n1 | 0.6 (≈ 1.74 µM)
O=[N+]([O-])c1ccc2nc(N3CCCC3)sc2c1 | 2.8 (≈ 11.2 µM)
O=C(CSc1ccccc1F)Nc1ccc2c(c1)OCO2 | 45.4 (≈ 149 µM)
Cc1ccc(S(=O)(=O)N2CCC(N3CCC(C)CC3)CC2)cc1 | > 50.5
CCC(=O)c1ccc2c(c1)N(CCCN(C)C)c1ccccc1S2.Cl | > 56.5
NC(=O)C1CCN(C(=O)CNC(=O)c2ccccc2)CC1 | > 43.4
CC(C)(CC(=O)O)CC(=O)Nc1ccccc1Oc1ccccc1 | > 49.1
Cl.NCCS | > 17
CCOc1ccc(C2NC(=S)NC3=C2CCc2ccccc23)cc1 (stereo not given) | 10.9 (≈ 32.4 µM)
COc1cccc(-c2nc(-c3ccc(Br)o3)no2)c1 | 0.5 (≈ 1.56 µM)
Nc1nc(NCc2ccco2)nc(N2CCCC2)c1[N+](=O)[O-] | > 45.6

SMILES | solubility kinetic [µg/mL]
COc1ccc(CNC(=O)C2CCN(S(C)(=O)=O)CC2)c(OC)c1 | > 53.5
CCOc1ccc(NC(=O)C2C(c3ccccc3)C2(Cl)Cl)cc1 (stereo not given) | < 0.8
COc1ccc(CCNC(=S)N(C)C)cc1OC | > 40.3
C=CCSc1nc2sc3c(c2c(=O)[nH]1)CC(C)(CC)OC3 (stereo not given) | 0.5 (≈ 1.55 µM)
N/C(=N\OC(=O)c1ccccc1)c1ccncc1 | 34.8 (≈ 144 µM)
COc1ccccc1N1C(=O)c2cccc3c(Cl)ccc(c23)C1=O | < 0.7
O=C(c1cc([N+](=O)[O-])cc([N+](=O)[O-])c1)N1CCN(C(=O)c2ccco2)CC1 | 54 (≈ 144 µM)
O=C(Nc1ccc(Cl)c(S(=O)(=O)N2CCOCC2)c1)C1CCCC1 | > 55.9
N#Cc1ccccc1NC(=S)NC(=O)C1CCC1 | > 38.9
CC(=O)c1ccc(NC(=O)CSc2nc3ccccc3c(=O)n2CCCN2CCOCC2)cc1 | > 72.1
CN1CCN(c2ccc(F)cc2N)CC1 | > 31.4
COc1cccc(N2C(=O)CC(Sc3nc(C)cc(C)n3)C2=O)c1 (stereo not given) | > 51.5
CC(C)c1ccc(NC(=O)c2ccccc2NC(=O)C2CCCCC2C(=O)O)cc1 (stereo not given) | 55.3 (≈ 135 µM)
O=C(COC(=O)Cc1ccc(Cl)cc1)NCc1ccco1 | > 46.2
O=C(c1ccc(Cl)c(Cl)c1)N1CCN(c2ccccn2)CC1 | 40.4 (≈ 120 µM)
O=C(/C=C/c1ccco1)Nc1ccc(CN2CCOCC2)cc1 | > 46.9
COC(=O)c1ccccc1NC(=O)NN1CCN(C)CC1 | > 43.9
CCn1ccnc1CN(C)Cc1nc(CCC(C)C)no1 | 38.4 (≈ 132 µM)
CC1Cc2ccccc2N1Cc1ccc([N+](=O)[O-])cc1 (stereo not given) | < 0.3
CN1CCCC(OC(=O)c2cccc(Cl)c2)C1.Cl (stereo not given) | > 43.5
Cc1ccc2c(c1)c(C1=c3ccccc3=NC1=O)c(O)n2C | 1.1 (≈ 3.79 µM)
Cc1ccc(N2C(=O)CC(Sc3nccc(C)n3)C2=O)cc1 (stereo not given) | > 47
CCN(CC)CCNC(=O)/C(=N\O)c1ccccn1 | > 39.6
Cc1occc1C(=O)Nc1c(Cl)cccc1Cl | 37.1 (≈ 137 µM)
